ChEMBL document CHEMBL6071153, “Design, synthesis, and evaluation of antitumor activity in Pseudolaric acid B Azole derivatives: Novel and potent angiogenesis inhibitor via regulation of the PI3K/AKT and MAPK mediated HIF-1/VEGF signaling pathway” (Eur J Med Chem, 2024)
Calls of active or inactive are those of the source. The rule behind the calls is not given here.

Columns and labels:
MDA-MB-231 [1] = experiment: Cytotoxicity against human MDA-MB-231 cells assessed as inhibition of cell growth incubated for 96 hrs under hypoxic condition by MTT assay; type: functional, cell-based; conditions: MDA-MB-231, 96 h
MDA-MB-231 [2] = experiment: Cytotoxicity against human MDA-MB-231 cells assessed as fold increase in inhibition of cell growth incubated for 96 hrs under hypoxic condition by MTT assay relative to 4-hydroxycoumarin; type: functional
MDA-MB-231 [3] = experiment: Cytotoxicity against human MDA-MB-231 cells assessed as fold increase in inhibition of cell growth incubated for 96 hrs under hypoxic condition by MTT assay relative to doxorubicin; type: functional
[4] = molecular target: Hypoxia-inducible factor 1-alpha (Homo sapiens) (UniProt Q16665); experiment: Inhibition of HIF-1alpha in human SiHa cells assessed as downregulation of HIF-1alpha protein expression incubated upto 60 mins under hypoxic condition in presence of MG-132 by Western blotting analysis; type: cell-based
Hypoxia-inducible factor 1-alpha (Homo sapiens), sequence (Q16665 whole entry, looked up): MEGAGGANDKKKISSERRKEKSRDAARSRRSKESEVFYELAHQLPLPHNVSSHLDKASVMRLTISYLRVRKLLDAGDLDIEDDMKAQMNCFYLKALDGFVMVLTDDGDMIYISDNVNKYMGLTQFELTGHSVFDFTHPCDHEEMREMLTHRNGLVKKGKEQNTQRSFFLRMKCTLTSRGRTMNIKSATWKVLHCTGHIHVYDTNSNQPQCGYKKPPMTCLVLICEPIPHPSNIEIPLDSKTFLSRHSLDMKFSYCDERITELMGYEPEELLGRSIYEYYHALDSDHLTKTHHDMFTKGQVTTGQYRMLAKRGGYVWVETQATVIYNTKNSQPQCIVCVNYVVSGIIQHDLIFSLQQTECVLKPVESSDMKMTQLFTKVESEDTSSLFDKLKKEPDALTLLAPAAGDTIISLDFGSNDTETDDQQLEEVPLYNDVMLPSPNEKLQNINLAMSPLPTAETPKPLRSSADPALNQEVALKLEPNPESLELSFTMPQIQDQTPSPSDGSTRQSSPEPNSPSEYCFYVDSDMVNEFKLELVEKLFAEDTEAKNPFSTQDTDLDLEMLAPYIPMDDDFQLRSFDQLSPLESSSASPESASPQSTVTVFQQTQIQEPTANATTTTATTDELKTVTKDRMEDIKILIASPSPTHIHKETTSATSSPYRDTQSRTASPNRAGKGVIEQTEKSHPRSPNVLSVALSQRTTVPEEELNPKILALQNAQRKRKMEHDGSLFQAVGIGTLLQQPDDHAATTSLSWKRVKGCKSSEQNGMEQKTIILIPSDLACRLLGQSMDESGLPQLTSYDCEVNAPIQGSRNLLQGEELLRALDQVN

[5] = Inhibition of VEGFR mediated endocytosis in human SiHa cells incubated for 24 hrs under hypoxic condition by ELISA; type: cell-based
[6] = Inhibition of PI3K/AKT/mTOR signalling pathway in human SiHa cells assessed as downregulation of ERK1/2 protein expression at 10 uM incubated for 24 hrs under hypoxic condition by Western blotting analysis; type: cell-based
SiHa [7] = experiment: Antitumor activity against human SiHa cells xenografted in Balb/c mouse assessed as reduction in VEGF expression in tumor at 30 mg/kg,ip administration measured after 22 days by immunohistochemical staining based analysis; type: functional, organism-based; conditions: time 22.0 day
[8] = Inhibition of PI3K/AKT/mTOR signalling pathway in human SiHa cells assessed as downregulation of PI3K protein expression at 0.3 to 10 uM incubated for 24 hrs under hypoxic condition by Western blotting analysis; type: cell-based; conditions: dose 0.3-10 µM
[9] = Inhibition of PI3K/AKT/mTOR signalling pathway in human SiHa cells assessed as downregulation of JNK protein expression at 10 uM incubated for 24 hrs under hypoxic condition by Western blotting analysis; type: cell-based
HUVEC [10] = experiment: Inhibition of cell migration in human HUVEC cells at 1 to 10 uM under hypoxic condition by microscopic analysis; type: functional, cell-based; conditions: dose 1-10 µM, TDE = time-dependent effect
[11] = Toxicity in Balb/c mouse xenografted with human SiHa cells assessed as reduction in body weight at 30 mg/kg,ip administration measured after 22 days; type: organism-based; conditions: in vivo, 528 h, time 22 day
HUVEC [12] = experiment: Antiangiogenic activity against human HUVEC cells assessed as inhibition of blood vessel formation at 1 to 10 uM incubated for 4 hrs under hypoxic condition by fluorescence microscopic analysis; type: functional, cell-based; conditions: dose 1-10 µM
SiHa [13] = experiment: Cytotoxicity against human SiHa cells assessed as inhibition of cell growth incubated for 24 hrs under normoxic condition by MTT assay; type: functional, cell-based
SiHa [14] = experiment: Inhibition of VEGFR in human SiHa cells assessed as decrease in intracellular VEGFR protein expression at 10 uM incubated for 24 hrs under hypoxic condition by immunofluorescence staining based analysis; type: cell-based
HUVEC [15] = experiment: Inhibition of cell migration in human HUVEC cells at 10 uM incubated for 48 hrs under hypoxic condition by microscopic analysis relative to PAB; type: functional
[16] = Inhibition of PI3K/AKT/mTOR signalling pathway in human SiHa cells assessed as downregulation of JNK phosphorylation at 10 uM incubated for 24 hrs under hypoxic condition by Western blotting analysis; type: cell-based
[17] = Toxicity in Balb/c mouse assessed as fatality at 50 mg/kg,ip administration for 1 week; type: organism-based; conditions: in vivo, 168 h, time 1 weeks
SiHa [18] = experiment: Antitumor activity against human SiHa cells xenografted in Balb/c mouse assessed as reduction in tumor growth at 30 mg/kg,ip administration measured after 22 days; type: functional, organism-based; conditions: time 22.0 day
[19] = molecular target: Hypoxia-inducible factor 1-alpha (Homo sapiens) (UniProt Q16665); experiment: Inhibition of HIF-1alpha in human SiHa cells assessed as downregulation of HIF-1alpha protein expression incubated upto 60 mins under hypoxic condition in presence of CHX by Western blotting analysis; type: cell-based
[20] = Inhibition of PI3K/AKT/mTOR signalling pathway in human SiHa cells assessed as downregulation of ERK1/2 phosphorylation at 10 uM incubated for 24 hrs under hypoxic condition by Western blotting analysis; type: cell-based
SiHa [21] = experiment: Inhibition of hypoxia-induced HIF-1alpha accumulation in human SiHa cells assessed as decrease in nuclear HIF-1alpha level at 10 uM incubated for 24 hrs under hypoxic condition by immunofluorescence staining based analysis; type: functional, cell-based
SiHa [22] = experiment: Inhibition of VEGFR in human SiHa cells incubated for 24 hrs under hypoxic condition by ELISA; type: cell-based
HUVEC [23] = experiment: Inhibition of cell invasion in human HUVEC cells at 1 to 10 uM incubated for 48 hrs under hypoxic condition by crystal violet staining based microscopic analysis relative to PAB; type: functional; conditions: dose 1-10 µM
[24] = Inhibition of PI3K/AKT/mTOR signalling pathway in human SiHa cells assessed as downregulation of mTOR protein expression at 0.3 to 10 uM incubated for 24 hrs under hypoxic condition by Western blotting analysis; type: cell-based; conditions: dose 0.3-10 µM
[25] = Inhibition of PI3K/AKT/mTOR signalling pathway in human SiHa cells assessed as downregulation of p38 protein expression at 10 uM incubated for 24 hrs under hypoxic condition by Western blotting analysis; type: cell-based
SiHa [26] = experiment: Antitumor activity against human SiHa cells xenografted in Balb/c mouse assessed as reduction in tumor weight at 30 mg/kg,ip administration measured after 22 days; type: functional, organism-based; conditions: time 22.0 day
HUVEC [27] = experiment: Inhibition of cell migration in human HUVEC cells incubated upto 48 hrs under hypoxic condition by microscopic analysis; type: functional, cell-based
SiHa [28] = experiment: Antitumor activity against human SiHa cells xenografted in Balb/c mouse assessed as reduction in HIF-1alpha expression in tumor at 30 mg/kg,ip administration measured after 22 days by immunohistochemical staining based analysis; type: functional, organism-based; conditions: time 22.0 day
HUVEC [29] = experiment: Inhibition of cell migration in human HUVEC cells at 3 uM incubated for 48 hrs under hypoxic condition by microscopic analysis relative to PAB; type: functional
SiHa [30] = experiment: Inhibition of HIF-1beta in human SiHa cells assessed as downregulation of HIF-1beta protein expression incubated upto 60 mins under hypoxic condition in presence of MG-132 by Western blotting analysis; type: cell-based
SiHa [31] = experiment: Antitumor activity against human SiHa cells xenografted in Balb/c mouse assessed as reduction in tumor volume at 30 mg/kg,ip administration measured after 22 days; type: functional, organism-based; conditions: time 22.0 day
HUVEC [32] = experiment: Inhibition of cell migration in human HUVEC cells at 1 uM incubated for 48 hrs under hypoxic condition by microscopic analysis relative to PAB; type: functional
[33] = Inhibition of PI3K/AKT/mTOR signalling pathway in human SiHa cells assessed as downregulation of p38 phosphorylation at 10 uM incubated for 24 hrs under hypoxic condition by Western blotting analysis; type: cell-based
SiHa [34] = experiment: Inhibition of hypoxia-induced HIF-1alpha accumulation in human SiHa cells at 0.3 to 10 uM incubated for 24 hrs under hypoxic condition by Western blotting analysis; type: functional, cell-based; conditions: dose 0.3-10 µM
[35] = Inhibition of PI3K/AKT/mTOR signalling pathway in human SiHa cells assessed as downregulation of AKT protein expression at 0.3 to 10 uM incubated for 24 hrs under hypoxic condition by Western blotting analysis; type: cell-based; conditions: dose 0.3-10 µM
[36] = molecular target: Hypoxia-inducible factor 1-alpha (Homo sapiens) (UniProt Q16665); experiment: Inhibition of HIF-1alpha in human SiHa cells assessed as downregulation of HIF-1alpha protein expression incubated upto 60 mins under hypoxic condition by Western blotting analysis; type: cell-based
SiHa [37] = experiment: Inhibition of hypoxia-induced HIF-1beta accumulation in human SiHa cells at 0.3 to 10 uM incubated for 24 hrs under hypoxic condition by Western blotting analysis; type: functional, cell-based; conditions: dose 0.3-10 µM
[38] = Toxicity in Balb/c mouse assessed as change in animal fur at 50 mg/kg,ip administration for 1 week; type: organism-based; conditions: in vivo, 168 h, time 1 weeks

O=c1cc(O)c2ccccc2o1 [4-HYDROXYCOUMARINS]
IC50 (MDA-MB-231 [1]): > 100 µM

COc1ccc(NC(=O)c2ccc(-n3cc(COc4cc(=O)oc5ccccc45)nn3)cc2)cc1OC
fold change (FC) (MDA-MB-231 [2]): 5000
fold change (FC) (MDA-MB-231 [3]): 20

COC(=O)C1=CC[C@@]23CC[C@@H]([C@@](C)(/C=C/C=C(\C)C(=O)OCC(=O)NCc4cn(-c5ccc(Cl)cc5)nn4)OC2=O)[C@@]3(OC(C)=O)CC1
inhibition [4]: Active
IC50 [5]: 0.68 µM
inhibition [6]: inactive
Activity (SiHa [7]): Active
inhibition [8]: Active
inhibition [9]: inactive
inhibition (HUVEC [10]): Tde
Activity [11]: Non-Toxic
Activity (HUVEC [12]): Active
IC50 (SiHa [13]): > 30 µM
inhibition (SiHa [14]): Active
inhibition at 10 µM (HUVEC [15]): 88.8%
inhibition [16]: Active
Activity [17]: Non-Toxic
Activity (SiHa [18]): Active
inhibition [19]: inactive
inhibition [20]: Active
inhibition (SiHa [21]): Active
inhibition (SiHa [22]): Dose-Dependent Effect
inhibition (HUVEC [23]): Active
inhibition [24]: Active
inhibition [25]: inactive
Activity (SiHa [26]): Active
inhibition (HUVEC [27]): Dose-Dependent Effect
Activity (SiHa [28]): Active
inhibition at 3 µM (HUVEC [29]): 66.1%
inhibition (SiHa [30]): inactive
Activity (SiHa [31]): Active
inhibition at 1 µM (HUVEC [32]): 35.6%
inhibition [33]: Active
inhibition (SiHa [34]): Active
inhibition [35]: Active
inhibition [36]: Active
inhibition (SiHa [37]): Active
Activity [38]: Non-Toxic
